Results taken from US20160008493A1, “RADIOACTIVE SUBSTRATES FOR ALDEHYDE DEHYDROGENASE” (THE JOHNS HOPKINS UNIVERSITY, priority 2013, published 2016).

Tests used:
ALDH [1] = molecular target: T1, ALDH (Mus musculus, UniProt P24549); assay: In vitro radio uptake assay for ALDH activity, L1210/cpa cells; assay type: cell-based, murine; conditions: L1210/cpa (ALDH^hi) cells; 1 μCi, 37° C., 30 mins; radioactivity (CPM) by gamma counter; FIG. 1
T1 construct: was tested for specific uptake by ALDH-expressing cell lines (K562 and L1210/cpa); endogenous in cells; host or cells: L1210/cpa
T1 sequence (P24549 1-501): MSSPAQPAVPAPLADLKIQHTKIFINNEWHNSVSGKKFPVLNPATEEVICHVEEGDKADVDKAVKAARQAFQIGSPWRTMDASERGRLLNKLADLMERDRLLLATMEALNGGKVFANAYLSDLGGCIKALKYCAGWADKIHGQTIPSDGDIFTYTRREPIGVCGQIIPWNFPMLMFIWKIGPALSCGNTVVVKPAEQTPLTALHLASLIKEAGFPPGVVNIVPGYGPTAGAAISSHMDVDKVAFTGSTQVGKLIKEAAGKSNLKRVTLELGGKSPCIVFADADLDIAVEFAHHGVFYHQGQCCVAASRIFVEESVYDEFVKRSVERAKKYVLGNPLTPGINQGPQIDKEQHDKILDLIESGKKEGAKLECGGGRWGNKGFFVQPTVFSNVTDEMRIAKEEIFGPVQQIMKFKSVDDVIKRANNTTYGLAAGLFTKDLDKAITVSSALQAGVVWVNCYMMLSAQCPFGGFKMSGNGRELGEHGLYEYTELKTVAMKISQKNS
Source text: (§1) The K562 human chronic myelogenous leukemia cell line was purchased from American Type Culture Collection (CLL-243™) and maintained in suspension in IMDM media supplemented with 10% FBS. The murine leukemia cell line L1210 (ALDH^low) and L1210/cpa (ALDH^hi) were provided by Dr. Richard J. Jones (Johns Hopkins University) and maintained in suspension in RPMI 1640 supplemented with 10% FBS. Human glioma cell line, U87-tri was provided by Dr. John Laterra (Kennedy Krieger Institute) and maintained in DMEM media supplemented with 10% FBS. All cells were grown at 37° C. in a humidified incubator with 5% CO2.
(§2) ^125IBz-A-DA was dissolved in 100% DMSO at 10 mCi/50 μL concentration and stored at −20° C. as stock solutions. 25 μL of a stock was deprotected by mixing with the same volume of 2N HCl for 30 mins at room temperature and the resulting aldehyde (IBz-A) were neutralized by adding 350 μL of the assay buffer (PBS supplemented with 1% FBS and 50 μM Verapamil, Sigma V4629) and immediately used.
(§3) One million cells were resuspended in the assay buffer and 1 μCi of IBz-A (with or without 1000 fold cold competitor) was added to the cell. […] Cells were resuspended in the cold assay buffer ([…]) and stored in the ice until analyzed. Cells were washed twice with cold assay buffer and the radioactivity was measured by LKB Wallac gamma counter (1282 compugamma CS).

ALDH [2] = assay: In vitro radio uptake assay for ALDH activity, K562 cells; assay type: cell-based, human; conditions: 1 μCi, 37° C., 30 mins, radioactivity (CPM) by gamma counter, FIG. 1
Source text: as §1, §2, §3

Q: Which “increase of uptake compared with cells treated with DEAB (ALDH inhibitor)” value (ALDH [1]) does the source give for O=CCNC(=O)c1ccc([125I])cc1 [^125IBz-A] here?
A: more than 5 fold

Q: What about the “increase of uptake compared with cells treated with DEAB (ALDH inhibitor)” value (ALDH [2]) of the same compound?
A: more than 5 fold
